Measurements taken from article PMC10907560, “Significant reduction of activity retention in the kidneys via optimized linker sequences in radiohybrid-based minigastrin analogs” (EJNMMI Research, 2024).
Read-outs that look alike come from different tables or passages of the source.

What was measured:
[1] = Lipophilicity, n-octanol/PBS distribution coefficient logD7.4; format: physicochemical; conditions: 177Lu-labeled peptide; n-octanol/PBS (1/1), n ≥ 5
Protocol: For determination of lipophilicity, the respective ^177Lu-Labeled peptide precursor (~ 1 MBq, 10 µL in 0.04 M HCl) was added to a solution of n-octanol/PBS (1/1, v/v, 1 mL) and vigourously mixed for 3 min at room temperature (n ≥ 5). Afterwards both phases were seperated using a Biofuge 15 centrifuge (Heraus Sepatech GmbH, Osterode, Germany) at 9,000 rpm for 5 min. 200 µL aliquots of both layers were collected separately, measured in a γ-counter (Perkin Elmer, Waltham, MA, USA) and the logD7.4 value was obtained.

[2] = biological target: T1, Human serum albumin (HSA) (Homo sapiens, UniProt P02768); assay: Human serum albumin binding via high performance affinity chromatography (HPAC); format: in vitro ADME; conditions: Chiralpak HSA column, n = 1
T1 construct: purchased Daicel, Tokyo, Japan H13H-2433
T1 sequence (P02768 25-609): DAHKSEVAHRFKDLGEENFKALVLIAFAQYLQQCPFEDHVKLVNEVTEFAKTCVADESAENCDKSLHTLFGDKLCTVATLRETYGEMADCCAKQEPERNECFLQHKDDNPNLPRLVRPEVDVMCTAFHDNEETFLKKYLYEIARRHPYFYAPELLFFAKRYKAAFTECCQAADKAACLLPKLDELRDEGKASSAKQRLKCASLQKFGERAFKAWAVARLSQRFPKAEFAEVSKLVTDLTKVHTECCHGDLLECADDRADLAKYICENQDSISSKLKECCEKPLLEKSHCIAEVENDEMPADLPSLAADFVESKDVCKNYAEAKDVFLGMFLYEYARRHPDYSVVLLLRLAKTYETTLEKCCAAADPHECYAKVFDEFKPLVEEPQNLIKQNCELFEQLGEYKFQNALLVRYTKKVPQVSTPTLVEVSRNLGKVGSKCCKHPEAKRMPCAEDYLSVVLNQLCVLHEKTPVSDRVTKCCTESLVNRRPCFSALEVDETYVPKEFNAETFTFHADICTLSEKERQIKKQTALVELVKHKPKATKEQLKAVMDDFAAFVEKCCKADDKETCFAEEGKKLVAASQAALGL
Protocol: Human serum albumin (HSA) binding was determined via high performance affinity chromatography (HPAC), according to previously published protocols. Human serum albumin interaction was calculated according to the retention time (n = 1) of our compounds on a Chiralpak HSA column in dependence of nine reference compounds with known HSA interaction.
Human serum albumin binding was determined via high performance affinity chromatography. Therefore, a Chiralpak HSA column (50 × 3 mm, 5 µm, H13H-2433, Daicel, Tokyo, Japan) was used at a constant flow rate of 0.5 ml/min at room temperature. Mobile phase A consisted of a freshly prepared aqueous solution of NH4OAc (pH = 6.9, 50 mM) and mobile phase B of isopropanol. Calibration of the column was performed daily prior to experiments, by determining the retention times of nine reference substances displaying a HSA binding from 13 to 99%. HPLC gradient for all compounds tested was 100% A (0 to 3 min), followed by 80% A (3 to 40 min). All substances tested, were dissolved in a mixture of A/B (0.5 mg/mL, 1:1, v/v). OriginPro 2016G software (Northampton, United States) was used for non-linear regression and data evaluation.

[3] = test system: AR42J tumor-bearing CB17-SCID mice; assay: Biodistribution at 24 h p.i. in AR42J tumor-bearing CB17-SCID mice; format: in vivo; conditions: for reduction of kidney accumulation and retention compared to [177Lu]Lu-DOTA-rhCCK-18: p < 0.0001
Protocol: (§1) Animal experiments were carried out according to the general animal welfare regulations in Germany (German animal protection act, in the edition of the announcement, dated 18 May 2006, as amended by Article 280 of 19 June 2020, approval no. ROB-55.2–1-2532.Vet_02-18–109 by the General Administration of Upper Bavaria) and the institutional guidelines for the care and use of animals. Therefore, CB17-SCID mice of both genders and aged 2–4 months (Charles River Laboratories International Inc., Sulzfeld, Germany) were used. After arrival at the in-house facilities, mice were allowed to acclimate for a minimum of one week before inoculation of AR42J cells. AR42J cells (6.0 × 10^6 cells per 200 μL) were suspended in a mixture (v/v = 1/1) of nutrient medium and Cultrex® Basement Membrane Matrix Type 3 (Trevigen Inc., Gaithersburg, MD, USA) and inoculated subcutaneously onto the right shoulder of CB17-SCID mice according to a previously reported protocol. Animals were excluded from the study when reaching one of the following endpoints: a weight loss higher than 20%, a tumor size above 1500 mm^3, an ulceration of the tumor, respiratory distress or change of behavior [8]. None of these criteria applied to any animal from the experiment. Neither randomization nor blinding was applied in the allocation of the experiments. Health status of the animals is specific pathogen free according to Federation of European Laboratory Animal Science Associations recommendation.
(§2) Biodistribution studies (n = 4) and µSPECT/CT imaging (n = 1) at 24 h p.i. were carried out as previously published. For all in vivo experiments, approximately 2–3 MBq (100 pmol) of the respective ^177Lu-labeled peptide were administered.
(§3) Table S2. Biodistribution data of [^177Lu]Lu-DOTA-rhCCK-70 and [^177Lu]Lu-DOTA-rhCCK-91 in selected organs at 24 h p.i. in AR42J tumor-bearing CB17-SCID mice (100 pmol each). Data are expressed as %ID/g, mean ± SD.
(§4) Table S3. Tumor-to-background ratios of [^177Lu]Lu-DOTA-rhCCK-70 and [^177Lu]Lu-DOTA-rhCCK-91 in selected organs at 24 h p.i. in AR42J tumor-bearing CB17-SCID mice (100 pmol each). Data are expressed as %ID/g, mean ± SD.

[4] = as above; format: in vivo; conditions: mouse, 100 pmol, 100 pmol; for tissue to tissue ratio at 24 h: both sexes, CB17-SCID, total radioactivity
Protocol: as §1, §2, §3, §4

[5] = tumor/adrenal, n=4, Table S3, read-out: Tumor-to-background ratio, Adrenal
[6] = tumor/blood, n=4, Table S3, read-out: Tumor-to-background ratio, Blood
[7] = tumor/bone, n=4, Table S3, read-out: Tumor-to-background ratio, Bone
[8] = tumor/heart, n=4, Table S3, read-out: Tumor-to-background ratio, Heart
[9] = tumor/intestine, n=4, Table S3, read-out: Tumor-to-background ratio, Intestine
[10] = tumor/kidney, n=4, Table S3, read-out: Tumor-to-background ratio, Kidney
[11] = tumor/liver, n=4, Table S3, read-out: Tumor-to-background ratio, Liver
[12] = tumor/lung, n=4, Table S3, read-out: Tumor-to-background ratio, Lung
[13] = tumor/muscle, n=4, Table S3, read-out: Tumor-to-background ratio, Muscle
[14] = tumor/pancreas, n=4, Table S3, read-out: Tumor-to-background ratio, Pancreas
[15] = tumor/spleen, n=4, Table S3, read-out: Tumor-to-background ratio, Spleen
[16] = tumor/stomach, n=4, Table S3, read-out: Tumor-to-background ratio, Stomach
[17] = adrenal, n=4, mean ± SD, read-out: Biodistribution, Adrenal
[18] = blood, n=4, mean ± SD, read-out: Biodistribution, Blood
[19] = bone, n=4, mean ± SD, read-out: Biodistribution, Bone
[20] = heart, n=4, mean ± SD, read-out: Biodistribution, Heart
[21] = intestine, n=4, mean ± SD, read-out: Biodistribution, Intestine
[22] = kidney, n=4, mean ± SD, read-out: Biodistribution, Kidney
[23] = liver, n=4, mean ± SD, read-out: Biodistribution, Liver
[24] = lung, n=4, mean ± SD, read-out: Biodistribution, Lung
[25] = muscle, n=4, mean ± SD, read-out: Biodistribution, Muscle
[26] = pancreas, n=4, mean ± SD, read-out: Biodistribution, Pancreas
[27] = spleen, n=4, mean ± SD, read-out: Biodistribution, Spleen
[28] = stomach, n=4, mean ± SD, read-out: Biodistribution, Stomach
[29] = tumor (AR42J xenograft), n=4, mean ± SD, read-out: Biodistribution, Tumor (AR42J xenograft)

CCCC[C@@H](C(=O)N[C@@H](CC(=O)O)C(=O)N[C@@H](Cc1cccc2ccccc12)C(N)=O)N(C)C(=O)[C@H](Cc1c[nH]c2ccccc12)NC(=O)CCOCCOCCOCCOCCNC(=O)CC[C@@H](NC(=O)CCOCCOCCOCCOCCOCCNC(=O)CC[C@@H](NC(=O)[C@@H](CNC(=O)C[N+](C)(C)Cc1ccc([Si](F)(C(C)(C)C)C(C)(C)C)cc1)NC(=O)CN1CCN(CC(=O)O)CCN(CC(=O)O)CCN(CC(=O)O)CC1)C(=O)O)C(=O)O [[^nat/177Lu]Lu-DOTA-rhCCK-91, DOTA-D-Dap(SiFAlin)-D-γ-Glu-(PEG)4-D-γ-Glu-(PEG)3-Trp-(N-Me)Nle-Asp-1-Nal-NH2, metal not drawn]
logD [1]: -1.66 ± 0.08 | HSA binding [2]: 90.0% | decrease of activity levels in the tumor compared to [177Lu]Lu-DOTA-rhCCK-18 [3]: three | Biodistribution, Kidney ([3]; 100 pmol, n=4, mean ± SD): 6.58 ± 0.53 %ID/g | Biodistribution, Liver ([3]; 100 pmol, n=4, mean ± SD): 1.96 ± 0.08 %ID/g | Biodistribution, Spleen ([3]; 100 pmol, n=4, mean ± SD): 1.04 ± 0.26 %ID/g | Biodistribution, Stomach ([3]; 100 pmol, n=4, mean ± SD): 3.99 ± 1.16 %ID/g | Biodistribution, Tumor (AR42J xenograft) ([3]; 100 pmol, n=4, mean ± SD): 7.47 ± 1.01 %ID/g | reduction of kidney accumulation and retention compared to [177Lu]Lu-DOTA-rhCCK-18 [3]: 20 fold | tissue to tissue ratio at 24 h [4, 5]: 17.3 ± 1.9 | tissue to tissue ratio at 24 h [4, 6]: 185 ± 32 | tissue to tissue ratio at 24 h [4, 7]: 11.8 ± 0.72 | tissue to tissue ratio at 24 h [4, 8]: 25.3 ± 5.2 | tissue to tissue ratio at 24 h [4, 9]: 12.3 ± 5.1 | tissue to tissue ratio at 24 h [4, 10]: 1.14 ± 0.12 | tissue to tissue ratio at 24 h [4, 11]: 3.8 ± 0.37 | tissue to tissue ratio at 24 h [4, 12]: 29.3 ± 4.2 | tissue to tissue ratio at 24 h [4, 13]: 147 ± 65 | tissue to tissue ratio at 24 h [4, 14]: 8.98 ± 2.1 | tissue to tissue ratio at 24 h [4, 15]: 7.35 ± 0.75 | tissue to tissue ratio at 24 h [4, 16]: 1.95 ± 0.27 | tissue uptake at 24 h [4, 17]: 0.44 ± 0.09 %ID/g | tissue uptake at 24 h [4, 18]: 0.04 ± 0.01 %ID/g | tissue uptake at 24 h [4, 19]: 0.64 ± 0.12 %ID/g | tissue uptake at 24 h [4, 20]: 0.31 ± 0.07 %ID/g | tissue uptake at 24 h [4, 21]: 0.68 ± 0.16 %ID/g | tissue uptake at 24 h [4, 22]: 6.6 ± 0.5 %ID/g | tissue uptake at 24 h [4, 23]: 2 ± 0.1 %ID/g | tissue uptake at 24 h [4, 24]: 0.26 ± 0.05 %ID/g | tissue uptake at 24 h [4, 25]: 0.06 ± 0.01 %ID/g | tissue uptake at 24 h [4, 26]: 0.9 ± 0.32 %ID/g | tissue uptake at 24 h [4, 27]: 1 ± 0.3 %ID/g | tissue uptake at 24 h [4, 28]: 4 ± 1.2 %ID/g | tissue uptake at 24 h [4, 29]: 7.5 ± 1 %ID/g

CCCC[C@@H](C(=O)N[C@@H](CC(=O)O)C(=O)N[C@@H](Cc1cccc2ccccc12)C(N)=O)N(C)C(=O)[C@H](Cc1c[nH]c2ccccc12)NC(=O)CCOCCOCCOCCOCCNC(=O)CC[C@@H](NC(=O)CCOCCOCCOCCOCCOCCOCCOCCOCCNC(=O)CC[C@@H](NC(=O)[C@@H](CNC(=O)c1ccc([Si](F)(C(C)(C)C)C(C)(C)C)cc1)NC(=O)CN1CCN(CC(=O)O)CCN(CC(=O)O)CCN(CC(=O)O)CC1)C(=O)O)C(=O)O [[^nat/177Lu]Lu-DOTA-rhCCK-70, DOTA-D-Dap(p-SiFA)-D-γ-Glu-(PEG)7-D-γ-Glu-(PEG)3-Trp-(N-Me)Nle-Asp-1-Nal-NH2, metal not drawn]
logD [1]: -1.67 | HSA binding [2]: 89.3% | decrease of activity levels in the tumor compared to [177Lu]Lu-DOTA-rhCCK-18 [3]: 2 fold | tumor-to-kidney ratio [3]: 1.45 ± 0.12 | Biodistribution, Kidney ([3]; 100 pmol, n=4, mean ± SD): 8.37 ± 0.78 %ID/g | Biodistribution, Liver ([3]; 100 pmol, n=4, mean ± SD): 3.48 ± 1.66 %ID/g | Biodistribution, Spleen ([3]; 100 pmol, n=4, mean ± SD): 1.92 ± 0.60 %ID/g | Biodistribution, Stomach ([3]; 100 pmol, n=4, mean ± SD): 6.21 ± 0.85 %ID/g | reduction of kidney accumulation and retention compared to [177Lu]Lu-DOTA-rhCCK-18 [3]: 16 fold | tissue to tissue ratio at 24 h [4, 5]: 20.5 ± 8.5 | tissue to tissue ratio at 24 h [4, 6]: 143 ± 49 | tissue to tissue ratio at 24 h [4, 7]: 9.48 ± 8.05 | tissue to tissue ratio at 24 h [4, 8]: 55.4 ± 13.4 | tissue to tissue ratio at 24 h [4, 9]: 27.4 ± 7.7 | tissue to tissue ratio at 24 h [4, 10]: 1.44 ± 0.12 | tissue to tissue ratio at 24 h ([4]; tumor/kidney, read-out: tumor-to-kidney ratio): 1.4 ± 0.1 | tissue to tissue ratio at 24 h [4, 11]: 4.26 ± 1.7 | tissue to tissue ratio at 24 h [4, 12]: 33.4 ± 8.53 | tissue to tissue ratio at 24 h [4, 13]: 276 ± 189 | tissue to tissue ratio at 24 h [4, 14]: 55.2 ± 19.6 | tissue to tissue ratio at 24 h [4, 15]: 6.95 ± 2.17 | tissue to tissue ratio at 24 h [4, 16]: 1.97 ± 0.24 | tissue to tissue ratio at 24 h ([4]; tumor/stomach, read-out: tumor-to-stomach ratio): 2 ± 0.2 | tissue uptake at 24 h [4, 17]: 0.55 ± 0.46 %ID/g | tissue uptake at 24 h [4, 18]: 0.1 ± 0.04 %ID/g | tissue uptake at 24 h ([4]; bone, depending on 177Lu-batch, read-out: activity levels in the bone, range observed (correlating with free lutetium-177)): 0.5 to 4.3 %ID/g | tissue uptake at 24 h [4, 19]: 2.4 ± 1.5 %ID/g | tissue uptake at 24 h [4, 20]: 0.23 ± 0.05 %ID/g | tissue uptake at 24 h [4, 21]: 0.48 ± 0.13 %ID/g | tissue uptake at 24 h [4, 22]: 8.4 ± 0.8 %ID/g | tissue uptake at 24 h [4, 23]: 3.5 ± 1.7 %ID/g | tissue uptake at 24 h [4, 24]: 0.39 ± 0.12 %ID/g | tissue uptake at 24 h [4, 25]: 0.06 ± 0.03 %ID/g | tissue uptake at 24 h [4, 26]: 0.24 ± 0.08 %ID/g | tissue uptake at 24 h [4, 27]: 1.9 ± 0.6 %ID/g | tissue uptake at 24 h [4, 28]: 6.2 ± 0.9 %ID/g | tissue uptake at 24 h [4, 29]: 12 ± 0.8 %ID/g
